Laboratory results as given in patent US6060462A, “Electrophilic peptide analogs as inhibitors of trypsin-like enzymes” (DuPont Pharmaceuticals Company, priority 1997, dated 2000).
Where a name gives a salt, the structure may show the parent alone.

Legend:
human thrombin = human thrombin (Homo sapiens, UniProt P00734); assay: Inhibition of thrombin hydrolysis of chromogenic substrate S2238 (Ki); assay type: biochemical; set-up: 0.2-0.5 nM human thrombin or human factor Xa; purchased Enzyme Research Laboratories, South Bend, Ind; conditions: purified human thrombin, 0.10 M sodium phosphate buffer, pH 7.5, read-out: Ki values for inhibition of Serine Proteases: Trombin
Protocol: (§1) The effectiveness of compounds of the present invention as inhibitors of blood coagulation proteases was determined using purified human proteases and synthetic substrates following procedures similar to those described in Kettner et al. (1990).
(§2) For these assays, the rate of enzymatic (thrombin, Factor Xa, and Factor VIIa) hydrolysis of chromogenic substrates (S2238 (H-D-Phe-Pip-Arg-pNA), S2222, and S2288, respectively; Kabi Pharmacia, Franklin, Ohio) was measured both in the absence and presence of compounds of the present invention. […] A decrease in the rate of absorbance change at 405 nm in the presence of inhibitor is indicative of enzyme inhibition. The results of this assay are expressed as inhibitory constant, Ki.
(§3) Thrombin and Xa determinations were made in 0.10 M sodium phosphate buffer, pH 7.5, containing 0.20 M NaCl, and 0.5% PEG 8000. VIIa determinations were made in 0.05 M tris buffer, pH 7.6, containing 0.10 M NaCl, 4 mM CaCl2, and 0.1% bovine serum albumin.
(§4) Reactions were allowed to go for 30 minutes and the velocities (rate of absorbance change vs time) were measured in the time frame of 25-30 minutes. The following relationship was used to calculate Ki values. [formula] where: vo is the velocity of the control in the absence of inhibitor;
(§5) vs is the velocity in the presence of inhibitor;
(§6) I is the concentration of inhibitor;
(§7) Ki is the dissociation constant of the enzyme: inhibitor complex;
(§8) S is the concentration of substrate;
(§9) Km is the Michaelis constant.

human factor Xa = target: T1, human factor Xa (Homo sapiens, UniProt P00742); assay: Inhibition of Factor Xa hydrolysis of chromogenic substrate S2222 (Ki); assay type: biochemical; conditions: purified human factor Xa, 0.10 M sodium phosphate buffer, pH 7.5, read-out: Ki values for inhibition of Serine Proteases: Factor Xa
T1 construct: 0.2-0.5 nM human thrombin or human factor Xa; purchased Enzyme Research Laboratories, South Bend, Ind
Protocol: as §1, §2, §3, §4, §5, §6, §7, §8, §9

human factor VIIa = target: T2, human factor VIIa (Homo sapiens, UniProt P08709); assay: Inhibition of Factor VIIa hydrolysis of chromogenic substrate S2288 (Ki); assay type: biochemical; conditions: purified human factor VIIa, 0.05 M tris buffer; for Ki: pH 7.6, read-out: Ki values for inhibition of Serine Proteases: Factor VIIa
T2 construct: 50 nM human factor VIIa (BiosPacific, Emeryville, Calif.); purchased BiosPacific, Emeryville, Calif
T2 sequence (P08709 213-466 limits assumed): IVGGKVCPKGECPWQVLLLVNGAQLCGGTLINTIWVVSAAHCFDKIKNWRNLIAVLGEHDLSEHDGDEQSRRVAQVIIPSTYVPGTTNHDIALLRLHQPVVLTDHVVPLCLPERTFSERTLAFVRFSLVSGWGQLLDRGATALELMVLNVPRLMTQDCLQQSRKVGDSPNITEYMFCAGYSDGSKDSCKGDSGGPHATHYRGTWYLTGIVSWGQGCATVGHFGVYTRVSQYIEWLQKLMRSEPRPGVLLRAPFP
T2 sequence (P08709 61-212 partner limits assumed): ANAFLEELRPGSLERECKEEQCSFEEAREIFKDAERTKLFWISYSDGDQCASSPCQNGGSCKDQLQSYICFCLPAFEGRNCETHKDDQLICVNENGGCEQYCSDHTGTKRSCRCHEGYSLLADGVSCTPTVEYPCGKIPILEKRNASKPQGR
Protocol: as §1, §2, §3, §4, §5, §6, §7, §8, §9

Thrombin time = Thrombin time (IC50), Table 80

T1 sequence (P00742 235-488 limits assumed): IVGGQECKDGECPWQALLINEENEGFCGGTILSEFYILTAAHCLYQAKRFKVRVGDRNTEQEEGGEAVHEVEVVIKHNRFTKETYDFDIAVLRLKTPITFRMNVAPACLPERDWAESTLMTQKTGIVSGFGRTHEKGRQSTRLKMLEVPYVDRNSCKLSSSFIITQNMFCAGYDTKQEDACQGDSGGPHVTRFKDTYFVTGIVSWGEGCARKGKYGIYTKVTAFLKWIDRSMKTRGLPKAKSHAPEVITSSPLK
T1 sequence (P00742 41-179 partner limits assumed): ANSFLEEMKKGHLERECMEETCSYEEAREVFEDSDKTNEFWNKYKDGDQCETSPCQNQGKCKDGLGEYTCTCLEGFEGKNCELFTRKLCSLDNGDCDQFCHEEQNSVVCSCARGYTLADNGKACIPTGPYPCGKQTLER

Molecule	Ki (human thrombin) [nM]	Ki (human factor Xa) [nM]	Ki (human factor VIIa) [nM]	IC50 (Thrombin time) [nM]	Ki values for inhibition of Serine Proteases: Factor VIIa (human factor VIIa; pH 7.6)
COC(=O)CCCC(=O)N(CCc1ccccc1)CC(=O)NC(CCCCN)B(O)O (stereo not drawn) [Example 68.4.1, Methyl Glutaryl-[N-(Phenethyl)-Gly]-boroLys--OH HCl]	< 500	< 500	< 50000	< 50000	
CN(CC(=O)NC(CCCCN)B(O)O)Cc1ccccc1Cn1cccc1 (stereo not drawn) [Example 65.1.3, N-{N-methyl-N-[2-(pyrrol-1-ylmethyl)-Benzyl]glycyl}-1-amido-5-aminopentaneboronic acid, hydrochloride salt]	< 500			< 50000	
NCCCCC(NC(=O)CN(C(=O)Cc1cccs1)C1CC1)B(O)O (stereo not drawn) [Example 78.1.3, Thiophenacetyl-[N-(Cyclopropyl)-Gly]-boroLys--OH HCl]	< 500			< 500	
CN(c1ccccc1)N(CC(=O)NC(CCCCN)B1OC2CC3CC(C3(C)C)C2(C)O1)C(=O)CCc1ccccc1 (stereo not drawn) [Example 54.2.1, Hydrocinnamoyl-[N-(N-(Methyl)-Phenyl)-Gly]-boroLys-C10H16 HCl]	< 500			< 50000	
COC(=O)CCC(=O)N(CCc1ccccc1)CC(=O)NC(CCCCN)B(O)O (stereo not drawn) [Example 68.3.3, Methyl Succinyl-[N-(Phenethyl)-Gly]-boroLys--OH HCl]	< 500	< 50000	< 50000	< 50000	
Hydrocinnamoyl-Sar-Lys[CH(OH)(OCH3)--C(=O)--OCH3] HCl [Example 61.4.1]	< 500	< 50000	< 50000	< 50000	
Hydrocinnamoyl-[N-(Phenethyl)-Gly]-boroOrn(CH=NH)-C10H16 HCl [Example 49.1.2]	< 500			< 500	
2-(Thiophenyl)-Benzoyl-Sar-boroOrn(CH=NH)-C10H16 HCl [Example 63.4.1]	< 500	< 500	< 50000	< 500	
CC1(C)C2CC3OB(C(CCCCN)NC(=O)CN(CCc4ccccc4)C(=O)CCCC(=O)O)OC3(C)C1C2 (stereo not drawn) [Example 69.1.1, Glutaryl-[N-(Phenethyl)-Gly]-boroLys-C10H16]	< 500	< 500	< 50000	< 50000	
CC1(C)C2CC3OB(C(CCCCN)NC(=O)CN(CCc4ccccc4C4CC4)C(=O)CCc4ccccc4)OC3(C)C1C2 (stereo not drawn) [Example 54.1.2, Hydrocinnamoyl-[N-(2-(Cyclopropyl)-Phenethyl)-Gly]-boroLys-C10H16 HCl]	< 500	< 50000	< 500	< 500	
CN(CC(=O)NC(CCCCN)B1OC2CC3CC(C3(C)C)C2(C)O1)Cc1ccccc1Cn1cccc1 (stereo not drawn) [Example 64.1.3, Pinanediol N-{N-methyl-N-[2-(pyrrol-1-ylmethyl)-Benzyl]glycyl}-1-amido-5-aminopentaneboronate, hydrochloride salt]	< 500			< 50000	
Hydrocinnamoyl-[N-(N(CH3)2)-Gly]-boroLys--OH HCl [Example 72.1.3]	< 500			< 500	
NCCCCC(NC(=O)CN(C(=O)COc1ccccc1)C1CC1)B(O)O (stereo not drawn) [Example 78.1.2, Phenoxyacetyl-[N-(Cyclopropyl)-Gly]-boroLys--OH HCl]	< 500			< 500	
NCCCCC(NC(=O)CN(C(=O)CCc1ccccc1)C1CC1)B(O)O (stereo not drawn) [Example 59.4.2, Hydrocinnamoyl-[N-(Cyclopropyl)-Gly]-boroLys--OH HCl]	< 500	< 50000		< 500	
CC1(C)C2CC3OB(C(CCCCN)NC(=O)CN(C(=O)COc4ccccc4)C4CC4)OC3(C)C1C2 (stereo not drawn) [Example 79.1.2, Phenoxyacetyl-[N-(Cyclopropyl)-Gly]-boroLys-C10H16 HCl]	< 500			< 500	
CC1(C)C2CC3OB(C(CCCCN)NC(=O)CN(C(=O)Cc4cccs4)C4CC4)OC3(C)C1C2 (stereo not drawn) [Example 79.1.3, Thiophenacetyl-[N-(Cyclopropyl)-Gly]-boroLys-C10H16 HCl]	< 500			< 500	

Molecule	Ki (human thrombin) [nM]	Ki (human factor Xa) [nM]	Ki (human factor VIIa) [nM]	IC50 (Thrombin time) [nM]	Ki values for inhibition of Serine Proteases: Factor VIIa (human factor VIIa; pH 7.6)
Hydrocinnamoyl-[N-(N-(Methyl)-Benzyl)-Gly]-boroLys-C10H16 HCl [Example 54.2.2]	< 500			< 50000	
Hydrocinnamoyl-[N-(N(CH3)2)-Gly]-boroOrn(CH=NH)-C10H16 HCl [Example 50.1.2]	< 500			< 500	
CN=C(N)NCCCC(NC(=O)CN(CCc1ccccc1)C(=O)CCc1ccccc1)B1OC2CC3CC(C3(C)C)C2(C)O1 (stereo not drawn) [Example 49.2.1, Hydrocinnamoyl-[N-(Phenethyl)-Gly]-boroArg(CH3)-C10H16 HCl]	< 500	< 500		< 50000	
Hydrocinnamoyl-[N-(N-(Methyl)-Phenyl)-Gly]-boroLys--OH HCl [Example 53.2.1]	< 500			< 50000	
Hydrocinnamoyl-[N-(2,2-(Dimethyl)-Phernethyl)-Gly]-boroOrn(CH=NH)-C10H16 HCl [Example 58.1.1]	< 500	< 500	< 500		
Hydrocinnamoyl-Sar-Lys--C(=O)--OCH3 HCl [Example 61.2.1]	< 50000	< 50000	< 50000		
Hydrocinnamoyl-[N-(2,2-(Dimethyl)-Phenethyl)-Gly]-boroOrn(CH=NH)--OH HCl [Example 57.1.1]	< 500	< 500	< 500		
Hydrocinnamoyl-[N-(Cyclopropyl)-Gly]-boroOrn(CH=NH)--OH HCl [Example 57.4.2]	< 500	< 50000		< 500	
CC(C)(CC(=O)O)CC(=O)N(CCc1ccccc1)CC(=O)NC(CCCCN)B1OC2CC3CC(C3(C)C)C2(C)O1 (stereo not drawn) [Example 67.1.2, Glutaryl(3,3-Dimethyl)-[N-(Phenethyl)-Gly]-boroLys-C10H16]	< 500	< 50000	< 50000		
COC(=O)CCCC(=O)N(CCc1ccccc1)CC(=O)NC(CCCCN)B1OC2CC3CC(C3(C)C)C2(C)O1 (stereo not drawn) [Example 69.4.1, Methyl Glutaryl-[N-(Phenethyl)-Gly]-boroLys-C10H16 HCl]	< 500	< 50000	< 50000		
N=CNCCCC(NC(=O)CN(CCc1ccccc1)C(=O)CCc1ccccc1)B(O)O (stereo not drawn) [Example 49.1.3, Hydrocinnamoyl-[N-(Phenethyl)-Gly]-boroOrn(CH=NH)--OH HCl]	< 500	< 500		< 500	
CN(CC(=O)NC(CCCSC(=N)N)B1OC2CC3CC(C3(C)C)C2(C)O1)C(=O)c1ccccc1Sc1ccccc1C#N (stereo not drawn) [Example 62.1.3, (2-(2-Cyano)-Thiophenyl)-Benzoyl-Sar-boroIrg-C10H16 HBr]	< 500	< 500	< 500		
Hydrocinnamoyl-[N-(2-(Cyclopropyl)-Phenethyl)-Gly]-boroOrn(CH=NH)--OH HCl [Example 57.1.2]	< 500	< 500	< 500		
CN(CC(=O)NC(CCCCBr)B1OC2CC3CC(C3(C)C)C2(C)O1)C(=O)c1ccccc1Sc1ccccc1C#N (stereo not drawn) [Example 62.1.2]	< 50000	< 50000	< 50000		
Pinanediol N-{N-methyl-N-[2-(Thiophenyl)-Benzoyl]Sar}-1-amido-5-thiocyanatobutane boronate [Example 63.5.1]	< 50000	< 50000			inactive
CN(CC(=O)NC(CCCN)B1OC2CC3CC(C3(C)C)C2(C)O1)C(=O)c1ccccc1Sc1ccccc1C#N (stereo not drawn) [Example 62.3.1, (2-(2-Cyano)-Thiophenyl)-Benzoyl-Sar-boroOrn-C10H16 HCl]	< 50000	< 50000	< 50000		
